Source: patent publication US6339042B1, “Herbicidal N-cyclohexadienyl heteroaryloxyacetamides” (American Cyanamid Co., priority 1999, dated 2002)

What was measured:
Details in all cases: three weeks after treatment
Amaranthus tuberculatus [1] = experiment: Post-emergence herbicidal evaluation, AMATA; format: in vivo
Zea mays [2] = experiment: Post-emergence herbicidal evaluation, ZEAMX
Description: (§2) Each pot is examined three weeks after treatment and phytotoxicity is assessed according to the rating system set forth below.
(§3) These acetone solutions are diluted with water and the resulting formulations applied at dosage levels equivalent of about 0.4 to 0.1 kg per hectare of test compound per pot. After spraying the plants are placed on greenhouse benches and are cared for in the usual manner, commensurate with conventional greenhouse practices.

Setaria viridis [3] = experiment: Pre-emergence herbicidal evaluation, SETVI; format: in vivo
From the text: (§1) The treated pots are then placed on greenhouse benches, watered and cared for in accordance with conventional greenhouse procedures.

Echinochloa crus-galli [4] = experiment: Pre-emergence herbicidal evaluation, ECHCG; format: in vivo
From the text: as §1

Hordeum vulgare [5] = experiment: Pre-emergence herbicidal evaluation, HORVW; format: in vivo
From the text: as §1

Apera spica venti [6] = experiment: Pre-emergence herbicidal evaluation, APESV; format: in vivo
From the text: as §1

Amaranthus tuberculatus [7] = experiment: Pre-emergence herbicidal evaluation, AMATA; format: in vivo
From the text: as §1

Zea mays [8] = experiment: Pre-emergence herbicidal evaluation, ZEAMX; format: in vivo
From the text: as §1

Triticum aestivum [9] = experiment: Post-emergence herbicidal evaluation, TRZAW
Description: as §2, §3

Lolium perenne [10] = experiment: Pre-emergence herbicidal evaluation, LOLPE; format: in vivo
From the text: as §1

Triticum aestivum [11] = experiment: Pre-emergence herbicidal evaluation, TRZAW; format: in vivo
From the text: as §1

Apera spica venti [12] = experiment: Post-emergence herbicidal evaluation, APESV
Glycine max [13] = experiment: Post-emergence herbicidal evaluation, GLXMA
Description: as §2, §3

Alopecurus myosuroides [14] = experiment: Post-emergence herbicidal evaluation, ALOMY
Oryza sativum [15] = experiment: Post-emergence herbicidal evaluation, ORYSA
Description: (§4) The compounds of the invention are tested for pre- and post-emergence herbicidal activity.
as §2, §3

Galium aparine = experiment: Post-emergence herbicidal evaluation, GALAP
Description: as §4, §2, §3

Hordeum vulgare [16] = experiment: Post-emergence herbicidal evaluation, HORVW
Setaria viridis [17] = experiment: Post-emergence herbicidal evaluation, SETVI
Lolium perenne [18] = experiment: Post-emergence herbicidal evaluation, LOLPE
Echinochloa crus-galli [19] = experiment: Post-emergence herbicidal evaluation, ECHCG
Glycine max [20] = experiment: Pre-emergence herbicidal evaluation, GLXMA; format: in vivo
From the text: as §1

Alopecurus myosuroides [21] = experiment: Pre-emergence herbicidal evaluation, ALOMY; format: in vivo
From the text: as §1

Oryza sativum [22] = experiment: Pre-emergence herbicidal evaluation, ORYSA; format: in vivo
From the text: as §1

CCc1nnc(OCC(=O)N(C2=CC(C)(C)CC(C)=C2)C(C)C)s1 [Example 11]
6 (6 - Herbicidal effect): phytotoxicity rating SETVI (Setaria viridis [3]; 0.100 kg/ha) | phytotoxicity rating ORYSA (Oryza sativum [22]; 0.800 kg/ha)
8 (8 - Approaching complete kill): phytotoxicity rating SETVI (Setaria viridis [3]; 0.200 kg/ha) | phytotoxicity rating SETVI (Setaria viridis [3]; 0.400 kg/ha) | phytotoxicity rating LOLPE (Lolium perenne [10]; 0.400 kg/ha) | phytotoxicity rating ALOMY (Alopecurus myosuroides [14]; 0.400 kg/ha) | phytotoxicity rating LOLPE (Lolium perenne [18]; 0.400 kg/ha) | phytotoxicity rating ALOMY (Alopecurus myosuroides [21]; 0.200 kg/ha) | phytotoxicity rating ALOMY (Alopecurus myosuroides [21]; 0.400 kg/ha)
1 (1 - Trace effect): phytotoxicity rating ZEAMX (Zea mays [2]; 0.200 kg/ha) | phytotoxicity rating HORVW (Hordeum vulgare [5]; 0.400 kg/ha) | phytotoxicity rating TRZAW (Triticum aestivum [9]; 0.400 kg/ha) | phytotoxicity rating ALOMY (Alopecurus myosuroides [14]; 0.100 kg/ha) | phytotoxicity rating HORVW (Hordeum vulgare [16]; 0.400 kg/ha) | phytotoxicity rating ORYSA (Oryza sativum [22]; 0.200 kg/ha)
3 (3 - Moderate effect): phytotoxicity rating AMATA (Amaranthus tuberculatus [1]; 0.200 kg/ha) | phytotoxicity rating TRZAW (Triticum aestivum [11]; 0.800 kg/ha) | phytotoxicity rating GLXMA (Glycine max [13]; 0.100 kg/ha) | phytotoxicity rating LOLPE (Lolium perenne [18]; 0.100 kg/ha) | phytotoxicity rating ECHCG (Echinochloa crus-galli [19]; 0.400 kg/ha)
0 (0 - No effect): phytotoxicity rating AMATA (Amaranthus tuberculatus [1]; 0.100 kg/ha) | phytotoxicity rating ZEAMX (Zea mays [2]; 0.100 kg/ha) | phytotoxicity rating HORVW (Hordeum vulgare [5]; 0.100 kg/ha) | phytotoxicity rating HORVW (Hordeum vulgare [5]; 0.200 kg/ha) | phytotoxicity rating APESV (Apera spica venti [6]; 0.100 kg/ha) | phytotoxicity rating APESV (Apera spica venti [6]; 0.200 kg/ha) | phytotoxicity rating AMATA (Amaranthus tuberculatus [7]; 0.100 kg/ha) | phytotoxicity rating AMATA (Amaranthus tuberculatus [7]; 0.200 kg/ha) | phytotoxicity rating AMATA (Amaranthus tuberculatus [7]; 0.400 kg/ha) | phytotoxicity rating ZEAMX (Zea mays [8]; 0.100 kg/ha) | phytotoxicity rating ZEAMX (Zea mays [8]; 0.200 kg/ha) | phytotoxicity rating ZEAMX (Zea mays [8]; 0.400 kg/ha) | phytotoxicity rating TRZAW (Triticum aestivum [9]; 0.100 kg/ha) | phytotoxicity rating TRZAW (Triticum aestivum [9]; 0.200 kg/ha) | phytotoxicity rating TRZAW (Triticum aestivum [11]; 0.100 kg/ha) | phytotoxicity rating TRZAW (Triticum aestivum [11]; 0.200 kg/ha) | phytotoxicity rating APESV (Apera spica venti [12]; 0.100 kg/ha) | phytotoxicity rating ORYSA (Oryza sativum [15]; 0.100 kg/ha) | phytotoxicity rating ORYSA (Oryza sativum [15]; 0.200 kg/ha) | phytotoxicity rating GALAP (Galium aparine; 0.100 kg/ha) | phytotoxicity rating GALAP (Galium aparine; 0.200 kg/ha) | phytotoxicity rating GALAP (Galium aparine; 0.400 kg/ha) | phytotoxicity rating HORVW (Hordeum vulgare [16]; 0.100 kg/ha) | phytotoxicity rating HORVW (Hordeum vulgare [16]; 0.200 kg/ha) | phytotoxicity rating SETVI (Setaria viridis [17]; 0.100 kg/ha) | phytotoxicity rating SETVI (Setaria viridis [17]; 0.200 kg/ha) | phytotoxicity rating SETVI (Setaria viridis [17]; 0.400 kg/ha) | phytotoxicity rating ECHCG (Echinochloa crus-galli [19]; 0.100 kg/ha) | phytotoxicity rating GLXMA (Glycine max [20]; 0.100 kg/ha) | phytotoxicity rating GLXMA (Glycine max [20]; 0.200 kg/ha) | phytotoxicity rating GLXMA (Glycine max [20]; 0.400 kg/ha) | phytotoxicity rating GLXMA (Glycine max [20]; 0.800 kg/ha) | phytotoxicity rating ORYSA (Oryza sativum [22]; 0.100 kg/ha)
2 (2 - Slight effect): phytotoxicity rating TRZAW (Triticum aestivum [11]; 0.400 kg/ha) | phytotoxicity rating ORYSA (Oryza sativum [15]; 0.400 kg/ha) | phytotoxicity rating ECHCG (Echinochloa crus-galli [19]; 0.200 kg/ha)
7 (7 - Good herbicidal effect): phytotoxicity rating ECHCG (Echinochloa crus-galli [4]; 0.100 kg/ha) | phytotoxicity rating ECHCG (Echinochloa crus-galli [4]; 0.200 kg/ha) | phytotoxicity rating ZEAMX (Zea mays [8]; 0.800 kg/ha) | phytotoxicity rating APESV (Apera spica venti [12]; 0.200 kg/ha) | phytotoxicity rating ALOMY (Alopecurus myosuroides [14]; 0.200 kg/ha) | phytotoxicity rating ALOMY (Alopecurus myosuroides [21]; 0.100 kg/ha)
9 (9 - Complete kill): phytotoxicity rating SETVI (Setaria viridis [3]; 0.800 kg/ha) | phytotoxicity rating ECHCG (Echinochloa crus-galli [4]; 0.400 kg/ha) | phytotoxicity rating ECHCG (Echinochloa crus-galli [4]; 0.800 kg/ha) | phytotoxicity rating LOLPE (Lolium perenne [10]; 0.800 kg/ha) | phytotoxicity rating ALOMY (Alopecurus myosuroides [21]; 0.800 kg/ha)
5 (5 - Definite injury): phytotoxicity rating APESV (Apera spica venti [6]; 0.400 kg/ha) | phytotoxicity rating APESV (Apera spica venti [6]; 0.800 kg/ha) | phytotoxicity rating LOLPE (Lolium perenne [10]; 0.200 kg/ha) | phytotoxicity rating APESV (Apera spica venti [12]; 0.400 kg/ha) | phytotoxicity rating GLXMA (Glycine max [13]; 0.200 kg/ha) | phytotoxicity rating GLXMA (Glycine max [13]; 0.400 kg/ha) | phytotoxicity rating LOLPE (Lolium perenne [18]; 0.200 kg/ha)
4 (4 - Injury): phytotoxicity rating AMATA (Amaranthus tuberculatus [1]; 0.400 kg/ha) | phytotoxicity rating ZEAMX (Zea mays [2]; 0.400 kg/ha) | phytotoxicity rating HORVW (Hordeum vulgare [5]; 0.800 kg/ha) | phytotoxicity rating AMATA (Amaranthus tuberculatus [7]; 0.800 kg/ha) | phytotoxicity rating LOLPE (Lolium perenne [10]; 0.100 kg/ha) | phytotoxicity rating ORYSA (Oryza sativum [22]; 0.400 kg/ha)
